# Data published in US4999374A, “Veterinary treatment” (priority 1987, dated 1991).
# “And” between values parts separate entries of the source, which are not always exact repeats. Identical values can stand only once. Like-named read-outs stand apart in the source and are kept apart here.
# Legend:
# [1] = test system: T. hyodysenteriae; assay: MIC of M139603 against thirteen T. hyodysenteriae isolates vs salinomycin and dimetridazole (Example 1, Table 1); format: cell-based, Treponema hyodysenteriae; details: for MIC: Brachyspira hyodysenteriae
# Procedure: The minimum inhibitory concentration of M139603 was tested in parallel with dimetridazole (May & Baker) and the growth-promoting polyether antibiotic salinomycin (Hoechst) against thirteen strains of T. hyodysenteriae.
# [2] = test system: T. hyodysenteriae; assay: Comparative efficacy of M139603 and monensin in experimentally infected mice (Example 2, Table 2); format: in vivo, mice (strain MF-1); details: 25 ppm feed
# Source text: (§1) The infection leads to varying degrees of caecitis, the lesions of which are apparent in animals killed on or about the sixth day post-infection. Caecal specimens examined by bacteriological culture techniques applicable for enumeration of organisms reveal the presence of high populations of T.hyodysenteriae. This disease-model was used in experiments to compare the efficacy of M139603 with that of salinomycin, lasalocid and monensin in suppressing the infection.
# (§2) In this study, the efficacy of M139603 was tested at 25 ppm feed and that of monensin (Eli Lilly) at 50 or 100 ppm. Groups of infected mice, five per group, were offered the drugs in the feed on five continuous days before killing. Caecal materials were subjected to bacteriological examination to enumerate the populations of viable treponemes per gram of material. […] The group mean in respect of the unmedicated groups was 7.9 cfu/g.
# [3] = test system: T. hyodysenteriae; assay: Comparative efficacy of M139603 and lasalocid in experimentally infected mice (Example 4, Table 4); format: in vivo, mice (strain MF-1); details: 20 ppm feed
# Source text: as §1, §2
# In this study, the efficacy of M139603 was tested at 20 ppm feed and that of lasalocid (Hoffman la Roche) at 20, 40 and 80 ppm. The test procedures were similar to those above except for the size of the inoculum of T.hyodysenteriae (1.2×10^7 cfu) used in infecting each mouse. […] The mean (log10) counts of viable treponemes found in the caecal contents of the various groups were: 2.5 cfu/g caecum (139603 at 20 ppm), 7.35 cfu (lasalocid at 20 ppm), 7.45 cfu (lasalocid at 40 ppm), 3.81 cfu (lasalocid at 80 ppm) and 8.50 cfu (unmedicated control).
# [4] = test system: T. hyodysenteriae (P18a); assay: Efficacy of M139603 in preventing swine dysentery in pigs, experimental infection (Example 5, Table 5); format: in vivo; details: 25 ppm feed
# Procedure: The efficacy of M139603 was tested at 25 ppm feed.
# (§3) In this studY two groups (Gp.1 and Gp.2) of pigs, six per group, were experimentally infected with a pathogenic strain of T. hyodysenteriae (P18a, IRAD(Institute for Animal Health), Compton, Berks, U.K.) by oro-gastric inoculation of 50 ml of a culture suspension (1×10^7cfu/ml) of the organism into each animal. From post-infection day (PID) to PID 35 the animals in Gp. 1 were offered ad lib a feed comprising "Kwikwean" meal (Rank, Hovis, McDougall Research Ltd; containing no antibiotics) incorporated with M139603 at 25 ppm. Gp.2 remained on unmedicated feed throughout the trial. Drug efficacy was measured primarily on the basis of the number of diarrhoea or dysentery days in relation to pig-days within a group and on the average daily weight gain per pig, in each group over the period of the trial. The daily gain was calculated by dividing group gain at end of trial (PID 35) by the total number of pig-days from PID 1 to PID 35. […] In the experiment the pigs were exposed to high infective doses of the organism a day before the introduction of the drug. Under normal circumstances preventive dose-regimes are applied on animals at risk and not on those already infected.
# [5] = test system: T. hyodysenteriae (strain "P18a"); assay: Efficacy of M139603 in pigs, natural infection (Example 6, Table 6); format: in vivo; details: for Mortality (+ culls): 38 days, 6 pigs; for Number diarrhoea/dysentery days / Percent diarrhoea/dysentery days: pi 1 to 38; for Average weight at end: start 10.95 kg
# Procedure: as §3
# In this study, eighteen pigs were allocated to three equal groups (Gp.1-3). Feed incorporated with the drug at 25 or 15 ppm was offered to Gp.1 and 2, respectively, on thirty-eight consecutive days commencing six hours pre-infection. Gp.3 remained on unmedicated feed throughout the trial. The pigs were infected with T. hyodysenteriae (strain "P18a") using methods and materials similar to those applied in Example 5. However, seven days following this exposure (post-infection day 7), over a period of seven consecutive days, the pigs in Gp. 1 and 2 were allowed to co-mingle for about two hours each day with some dysenteric "seeder pigs" in a nearby pen. Drug efficacy, as in Example 6, was assessed primarily on the basis of the total number of diarrhoea/dysentery days per group and on the basis of average daily weight gain per pig per group. The results are indicative of the good efficacy of M139603 even at a level as low as 15 ppm feed in preventing swine dysentery. At this dose-level, the daily drug-intake is unlikely to be more than 0.9 mg/kg/body-weight, if daily feed is calculated at 6% of a pig's body-weight.
smiles,measurement,setting,value
"CO[C@@H](C)[C@H]1C[C@H](C)[C@H]([C@@H](C)/C=C/[C@@H]2CC[C@@H](C)[C@H](/C(=C/[C@H]3CCC[C@@H](C)[C@@H]3[C@H](C)C(=O)C3=C(O)COC3=O)CO)O2)O1 [Analogue M139603, tetronasin]",MIC,"[1]; isolate B78, read-out: MIC",0.5 µg/mL
same,MIC,"[1]; isolate S82/6, read-out: MIC",0.2 µg/mL
same,MIC,"[1]; isolate S82/7, read-out: MIC",0.2 µg/mL
same,MIC,"[1]; isolate S83/1, read-out: MIC",< 0.1 µg/mL
same,MIC,"[1]; isolate S83/2, read-out: MIC",0.5 µg/mL
same,MIC,"[1]; isolate S83/5, read-out: MIC",< 0.1 µg/mL
same,MIC,"[1]; isolate S85/1, read-out: MIC",0.2 µg/mL
same,MIC,"[1]; isolate S85/2, read-out: MIC",0.2 µg/mL
same,MIC,"[1]; isolate S85/3, read-out: MIC",0.2 µg/mL
same,MIC,"[1]; isolate S85/8, read-out: MIC",0.2 µg/mL
same,MIC,"[1]; isolate S85/9, read-out: MIC",< 0.1 µg/mL
same,MIC,"[1]; isolate S86/1, read-out: MIC",< 0.1 µg/mL
same,MIC,"[1]; isolate S86/2, read-out: MIC",0.2 µg/mL
same,MIC,"[1]; mean of 13 strains (table), read-out: Mean MIC",0.215 µg/mL
same,MIC compared with salinomycin (statistical analysis),[1]; thirteen strains,significantly (p<0.001) lower MIC
same,Suppression of infection,[2],suppressed the infection
same,Mean (log10) viable treponemes per gram caecum & contents,"[2]; 5 days, group mean",0 log10 per gram
same,Viable treponemes per gram caecum & contents,"[2]; 5 days, individual mice, limit of detection <1.0 × 10^2",negative
same,Complete suppression of infection,[3],completely suppressed the infection in two mice
same,Efficacy compared with lasalocid at 80 ppm,[3],greater than that of lasalocid at 80 ppm
same,Mean (log10) viable treponemes per gram caecal contents,"[3]; 5 days, group mean (table)",1.62 log10 per gram
same,Viable treponemes per gram caecal contents,"[3]; 5 days, individual mice",0 per gram and 4.3 × 10^3 per gram and 3.0 × 10^2 per gram and 1.0 × 10^2 per gram
same,Mean (log10) count of viable treponemes in caecal contents,[3]; log10,2.5 cfu/g caecum
same,Reduction of T. hyodysenteriae populations,[3]; other three mice,markedly reduced
same,Efficacy in preventing swine dysentery,[4],preventing or minimising the incidence of swine dysentery
same,Mortality (+ culls),"[4]; 35 days, 6 pigs",0
same,Average daily weight-gain,[4]; PID 1-35,0.62 kg
same,Number diarrhoea/dysentery days,[4]; PID 1-35,27 days
same,Percent diarrhoea/dysentery days,[4]; PID 1-35,12.9%
same,Average weight at termination,[4]; start 18.8,40.5
same,Group weight at termination,[4]; start 112 kg,243 kg
same,Average daily weight-gain,[5]; 15 ppm feed,0.72 kg
same,Efficacy in preventing swine dysentery,[5]; 15 ppm feed,good efficacy
same,Mortality (+ culls),[5]; 15 ppm feed,0
same,Number diarrhoea/dysentery days,[5]; 15 ppm feed,0 days
same,Percent diarrhoea/dysentery days,[5]; 15 ppm feed,0%
same,Average weight at end,[5]; 15 ppm feed,41.0 kg
same,Group weight at end,"[5]; 15 ppm feed, start 65.5 kg",246.5 kg
same,Animals developing a transient dysentery,[5]; 25 ppm feed,one of the six animals
same,Average daily weight-gain,[5]; 25 ppm feed,0.72 kg
same,Mortality (+ culls),[5]; 25 ppm feed,0
same,Number diarrhoea/dysentery days,[5]; 25 ppm feed,14 days
same,Percent diarrhoea/dysentery days,[5]; 25 ppm feed,6.1%
same,Average weight at end,[5]; 25 ppm feed,41.0 kg
same,Group weight at end,"[5]; 25 ppm feed, start 65.7 kg",246.5 kg
